In US11420958B2, “Aryl and heteroaryl substituted indole compounds” (BRISTOL-MYERS SQUIBB COMPANY, priority 2017, dated 2022):

Assays:
Assay type in all cases: cell-based
[1] = biological target: human TLR8 (Homo sapiens (Human), UniProt Q9NR97); assay: TLR8 inhibition reporter assay (HEK-Blue, SEAP); details: HEK-Blue cells overexpressing human TLR8, R848 15.9 μM stimulation
Outline: (§1)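 SEAP read-out via detection medium after 22 h at 37 °C, 5% CO2; percent inhibition relative to agonist-plus-DMSO and known-inhibitor wells. Agonists: TLR7 gardiquimod 7.5 μM, TLR8 R848 15.9 μM, TLR9 ODN2006 5 nM (final). Compound range 0.05 nM–50 μM, 30 min pre-treatment.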

[2] = biological target: human TLR7 (Homo sapiens (Human), UniProt Q9NYK1); assay: TLR7 inhibition reporter assay (HEK-Blue, SEAP); details: HEK-Blue cells overexpressing human TLR7, gardiquimod 7.5 μM stimulation
Outline: as §1

[3] = biological target: human TLR9 (Homo sapiens (Human), UniProt Q9NR96); assay: TLR9 inhibition reporter assay (HEK-Blue, SEAP); details: HEK-Blue cells overexpressing human TLR9, ODN2006 5 nM stimulation
Outline: as §1

Sequence of human TLR9 (Q9NR96 26-1032): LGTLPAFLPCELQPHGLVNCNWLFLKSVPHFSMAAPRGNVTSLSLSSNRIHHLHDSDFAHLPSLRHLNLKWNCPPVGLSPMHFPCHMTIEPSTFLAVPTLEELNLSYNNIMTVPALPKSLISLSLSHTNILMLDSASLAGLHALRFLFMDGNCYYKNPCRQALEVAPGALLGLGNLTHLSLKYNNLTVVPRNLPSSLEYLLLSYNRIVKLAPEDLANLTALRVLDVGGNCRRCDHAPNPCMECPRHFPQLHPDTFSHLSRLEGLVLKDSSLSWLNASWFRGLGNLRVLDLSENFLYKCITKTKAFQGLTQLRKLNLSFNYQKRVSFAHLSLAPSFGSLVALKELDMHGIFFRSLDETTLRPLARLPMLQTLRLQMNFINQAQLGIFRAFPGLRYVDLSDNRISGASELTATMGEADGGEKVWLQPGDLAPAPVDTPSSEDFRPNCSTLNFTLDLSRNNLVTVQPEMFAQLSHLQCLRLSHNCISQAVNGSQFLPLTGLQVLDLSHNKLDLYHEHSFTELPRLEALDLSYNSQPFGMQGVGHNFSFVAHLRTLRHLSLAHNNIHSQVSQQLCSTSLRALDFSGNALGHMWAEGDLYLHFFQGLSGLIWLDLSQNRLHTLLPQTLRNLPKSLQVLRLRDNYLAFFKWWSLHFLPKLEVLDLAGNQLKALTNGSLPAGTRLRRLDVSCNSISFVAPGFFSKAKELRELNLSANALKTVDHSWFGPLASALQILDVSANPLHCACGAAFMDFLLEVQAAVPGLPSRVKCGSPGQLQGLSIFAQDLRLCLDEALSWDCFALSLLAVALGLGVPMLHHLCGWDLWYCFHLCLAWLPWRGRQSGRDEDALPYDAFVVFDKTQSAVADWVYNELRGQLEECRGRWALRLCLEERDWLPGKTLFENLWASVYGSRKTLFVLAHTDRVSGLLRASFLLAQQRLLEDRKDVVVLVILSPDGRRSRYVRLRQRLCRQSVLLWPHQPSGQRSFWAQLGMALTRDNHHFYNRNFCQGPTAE
Sequence of human TLR7 (Q9NYK1 27-1049): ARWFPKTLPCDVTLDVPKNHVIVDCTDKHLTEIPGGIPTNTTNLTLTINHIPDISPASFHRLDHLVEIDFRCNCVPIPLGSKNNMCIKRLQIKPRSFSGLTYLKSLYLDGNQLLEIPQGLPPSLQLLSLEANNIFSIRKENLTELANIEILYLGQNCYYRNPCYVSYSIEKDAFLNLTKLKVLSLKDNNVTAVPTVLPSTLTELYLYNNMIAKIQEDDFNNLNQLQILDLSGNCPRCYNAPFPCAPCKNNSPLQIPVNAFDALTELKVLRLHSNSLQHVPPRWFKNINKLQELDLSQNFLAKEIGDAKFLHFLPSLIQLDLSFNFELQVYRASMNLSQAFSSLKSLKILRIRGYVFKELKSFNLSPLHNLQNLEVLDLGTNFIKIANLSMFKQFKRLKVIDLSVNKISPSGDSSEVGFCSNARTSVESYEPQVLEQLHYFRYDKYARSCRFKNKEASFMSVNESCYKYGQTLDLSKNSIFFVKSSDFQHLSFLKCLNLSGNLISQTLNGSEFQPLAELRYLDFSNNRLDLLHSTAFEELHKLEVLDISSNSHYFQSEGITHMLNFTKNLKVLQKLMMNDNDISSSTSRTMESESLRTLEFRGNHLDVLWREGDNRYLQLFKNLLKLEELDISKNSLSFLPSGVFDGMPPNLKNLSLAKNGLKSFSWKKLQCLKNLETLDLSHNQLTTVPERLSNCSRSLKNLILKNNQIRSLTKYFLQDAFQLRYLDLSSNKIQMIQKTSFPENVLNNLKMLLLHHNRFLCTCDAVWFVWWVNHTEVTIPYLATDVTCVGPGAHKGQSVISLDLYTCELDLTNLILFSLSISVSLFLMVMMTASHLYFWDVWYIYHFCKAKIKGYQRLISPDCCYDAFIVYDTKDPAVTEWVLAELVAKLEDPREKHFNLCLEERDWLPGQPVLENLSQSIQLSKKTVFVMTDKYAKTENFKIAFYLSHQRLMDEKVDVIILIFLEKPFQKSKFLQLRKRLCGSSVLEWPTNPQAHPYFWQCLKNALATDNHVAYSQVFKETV
Sequence of human TLR8 (Q9NR97 27-1041): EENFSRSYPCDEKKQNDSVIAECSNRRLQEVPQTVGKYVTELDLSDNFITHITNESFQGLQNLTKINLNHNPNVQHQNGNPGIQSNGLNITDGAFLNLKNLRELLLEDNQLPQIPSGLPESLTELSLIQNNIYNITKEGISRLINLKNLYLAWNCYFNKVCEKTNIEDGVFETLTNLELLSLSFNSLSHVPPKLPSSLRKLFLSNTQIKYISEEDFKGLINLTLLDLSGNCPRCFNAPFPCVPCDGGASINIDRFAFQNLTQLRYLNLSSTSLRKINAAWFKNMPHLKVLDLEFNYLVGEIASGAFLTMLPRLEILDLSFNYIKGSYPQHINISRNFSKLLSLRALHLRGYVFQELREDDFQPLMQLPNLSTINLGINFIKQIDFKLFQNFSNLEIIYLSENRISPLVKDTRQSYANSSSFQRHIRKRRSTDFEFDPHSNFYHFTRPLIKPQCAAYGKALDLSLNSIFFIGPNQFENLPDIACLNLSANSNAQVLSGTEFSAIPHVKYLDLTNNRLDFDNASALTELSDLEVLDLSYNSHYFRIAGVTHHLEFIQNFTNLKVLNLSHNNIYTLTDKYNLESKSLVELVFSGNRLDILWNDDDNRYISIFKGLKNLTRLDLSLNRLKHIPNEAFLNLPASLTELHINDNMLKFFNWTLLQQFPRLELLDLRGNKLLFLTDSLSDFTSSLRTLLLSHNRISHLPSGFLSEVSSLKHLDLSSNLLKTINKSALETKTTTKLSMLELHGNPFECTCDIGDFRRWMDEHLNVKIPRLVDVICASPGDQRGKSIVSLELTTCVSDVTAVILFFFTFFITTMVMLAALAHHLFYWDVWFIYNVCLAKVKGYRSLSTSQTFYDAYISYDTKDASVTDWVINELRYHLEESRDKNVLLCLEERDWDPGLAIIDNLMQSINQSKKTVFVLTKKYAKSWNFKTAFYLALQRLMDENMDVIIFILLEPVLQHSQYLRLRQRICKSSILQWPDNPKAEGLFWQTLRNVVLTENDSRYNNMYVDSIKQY

Row | SMILES | IC50 [1] [nM] | IC50 [2] [nM] | IC50 [3] [nM]
1 | COc1ccc(-c2[nH]c3ccc(-c4nnc(C(=O)N5CCCN(C)CC5)o4)cc3c2C(C)C)cc1OC [Example 93, (5-(2-(3,4-dimethoxyphenyl)-3-isopropyl-1H-indol-5-yl)-1,3,4-oxadiazol-2-yl)(4-methyl-1,4-diazepan-1-yl)methanone] | 15 | 86 | 2020
2 | COc1ccc(-c2[nH]c3ccc(-c4nnc(C(=O)NCCN(C)C)o4)cc3c2C(C)C)cc1OC [Example 90, 5-(2-(3,4-dimethoxyphenyl)-3-isopropyl-1H-indol-5-yl)-N-(2-(dimethylamino)ethyl)-1,3,4-oxadiazole-2-carboxamide] | 4 | 30 | 802
3 | COc1ccc(-c2[nH]c3ccc(-c4cccc(-c5cccc(CN6CCOCC6)c5)c4)cc3c2C(C)C)cc1OC [Example 396, 4-((3′-(2-(3,4-dimethoxyphenyl)-3-isopropyl-1H-indol-5-yl)-[1,1′-biphenyl]-3-yl)methyl)morpholine] | 519 | 2310 | > 50000
4 | Cc1cc(-c2[nH]c3ccc(-c4nnc(CCN(C)C)o4)cc3c2C(C)C)cc(C)n1 [Example 270, 2-(5-(2-(2,6-dimethylpyridin-4-yl)-3-isopropyl-1H-indol-5-yl)-1,3,4-oxadiazol-2-yl)-N,N-dimethylethan-1-amine] | 1 | 10 | 298
5 | Cc1cc(-c2[nH]c3ccc(-c4nnc(C5CCCN(C(C)C)C5)o4)cc3c2CC(F)F)cc(C)n1 (stereo not drawn) [Example 314, 2-(3-(2,2-difluoroethyl)-2-(2,6-dimethylpyridin-4-yl)-1H-indol-5-yl)-5-(1-isopropylpiperidin-3-yl)-1,3,4-oxadiazole] | 11 | 43 | 106
6 | COc1ccc(-c2[nH]c3ccc(-c4nnc(C5CCN(CC(=O)N(C)C)CC5)[nH]4)cc3c2C(C)C)cc1OC [Example 129, 2-(4-(5-(2-(3,4-dimethoxyphenyl)-3-isopropyl-1H-indol-5-yl)-4H-1,2,4-triazol-3-yl)piperidin-1-yl)-N,N-dimethylacetamide] | 14 | 60 | 3460
7 | Cc1cc(-c2[nH]c3ccc(-c4nnc(C5CN6CCC5CC6)o4)cc3c2C(C)C)ccn1 (stereo not drawn) [Example 231, 2-(3-isopropyl-2-(2-methylpyridin-4-yl)-1H-indol-5-yl)-5-(quinuclidin-3-yl)-1,3,4-oxadiazole] | 5.9 | 69 | 895
8 | COc1ccc(-c2[nH]c3ccc(-c4cnc(N5CCN(C6CCC6)CC5)nc4)cc3c2C(C)C)cc1OC [Example 436, 5-(2-(4-cyclobutylpiperazin-1-yl)pyrimidin-5-yl)-2-(3,4-dimethoxyphenyl)-3-isopropyl-1H-indole] | 331 | 1490 | 11100
9 | COc1ccc(-c2[nH]c3ccc(-c4cc[nH]c4)cc3c2C(C)C)cc1OC [Example 465, 2-(3,4-dimethoxyphenyl)-3-isopropyl-5-(1H-pyrrol-3-yl)-1H-indole] | 81 | 305 | 33000
10 | COc1ccc(-c2[nH]c3ccc(-c4cccc(C(=O)N5CC6CNCC6C5)c4)cc3c2C(C)C)cc1OC (stereo not drawn) [Example 9, (3-(2-(3,4-dimethoxyphenyl)-3-isopropyl-1H-indol-5-yl)phenyl)(hexahydropyrrolo[3,4-c]pyrrol-2(1H)-yl)methanone] | 4.1 | 108 | 744
11 | CCc1c(-c2ccc(OC)c(OC)c2)[nH]c2ccc(-c3noc([C@H]4C[C@H]5CC[C@@H](C4)N5)n3)cc12 [Example 452, 5-((1R,3r,5S)-8-azabicyclo[3.2.1]octan-3-yl)-3-(2-(3,4-dimethoxyphenyl)-3-ethyl-1H-indol-5-yl)-1,2,4-oxadiazole] | 52 | 282 | 1930
12 | CNCC(=O)N1CCC(c2nnc(-c3ccc4[nH]c(-c5ccc(OC)c(OC)c5)c(C(C)C)c4c3)o2)CC1 [Example 18, 1-(4-(5-(2-(3,4-dimethoxyphenyl)-3-isopropyl-1H-indol-5-yl)-1,3,4-oxadiazol-2-yl)piperidin-1-yl)-2-(methylamino)ethan-1-one] | 9.5 | 42 | 625
13 | COc1ccc(-c2[nH]c3ccc(-c4nnc([C@H]5CCCNC5)o4)cc3c2CC(F)(F)F)cc1OC [compound 57] | 10 | 31 | 1470
14 | Cc1cc(-c2[nH]c3ccc(-c4nc(C(=O)NCCCN5CCCCC5)co4)cc3c2C(C)C)cc(C)n1 [Example 275, 2-(2-(2,6-dimethylpyridin-4-yl)-3-isopropyl-1H-indol-5-yl)-N-(3-(piperidin-1-yl)propyl)oxazole-4-carboxamide] | 12 | 18 | 601
15 | CCN(CCN(C)C)C(=O)c1nnc(-c2ccc3[nH]c(-c4cc(C)nc(C)c4)c(C(C)C)c3c2)o1 [Example 300, N-(2-(dimethylamino)ethyl)-5-(2-(2,6-dimethylpyridin-4-yl)-3-isopropyl-1H-indol-5-yl)-N-ethyl-1,3,4-oxadiazole-2-carboxamide] | 2 | 10 | 346

More lines, now with the values ahead:

Row | IC50 [1] [nM] | IC50 [2] [nM] | IC50 [3] [nM] | SMILES
16 | 0.9 | 16 | 687 | Cc1cc(-c2[nH]c3ccc(-c4nnc([C@H]5CCCNC5)o4)cc3c2C(C)C)ccn1 [Example 69, (S)-2-(3-isopropyl-2-(2-methylpyridin-4-yl)-1H-indol-5-yl)-5-(piperidin-3-yl)-1,3,4-oxadiazole]
17 | 71 | 264 | > 50000 | Cc1cc(-c2[nH]c3ccc(-c4cnc(N)nc4)cc3c2C(C)C)ccn1 [Example 193, 5-(3-isopropyl-2-(2-methylpyridin-4-yl)-1H-indol-5-yl)pyrimidin-2-amine]
18 | 1.8 | 24 | 1230 | Cc1cc(-c2[nH]c3ccc(-c4nnc(C5CCCN(C)C5)o4)cc3c2C(C)C)ccn1 (stereo not drawn) [Example 159, 2-(3-isopropyl-2-(2-methylpyridin-4-yl)-1H-indol-5-yl)-5-(1-methylpiperidin-3-yl)-1,3,4-oxadiazole]
19 | 5.9 | 6.4 | 295 | Cc1cc(-c2[nH]c3ccc(-c4cc5c(s4)CN(C(=O)CN(C)C)CC5)cc3c2C(C)C)cc(C)n1 [Example 341, 2-(dimethylamino)-1-(2-(2-(2,6-dimethylpyridin-4-yl)-3-isopropyl-1H-indol-5-yl)-4,7-dihydrothieno[2,3-c]pyridin-6(5H)-yl)ethan-1-one]
20 | 38 | 57 | 6880 | COc1ccc(-c2[nH]c3ccc(-c4ccc5c(c4)CCNC5)cc3c2C(C)C)cc1OC [Example 136, 6-(2-(3,4-dimethoxyphenyl)-3-isopropyl-1H-indol-5-yl)-1,2,3,4-tetrahydroisoquinoline]
21 | 235 | 483 | > 50000 | COc1ccc(-c2[nH]c3ccc(-c4nnc(C)o4)cc3c2C(C)C)cc1OC [Example 63, 2-(2-(3,4-dimethoxyphenyl)-3-isopropyl-1H-indol-5-yl)-5-methyl-1,3,4-oxadiazole]
22 | 93 | 496 | 1940 | CNCCN1CCn2nc(-c3ccc4[nH]c(-c5ccnc(C)c5)c(C(C)C)c4c3)c(C(N)=O)c2C1 [Example 218, 2-(3-isopropyl-2-(2-methylpyridin-4-yl)-1H-indol-5-yl)-5-(2-(methylamino)ethyl)-4,5,6,7-tetrahydropyrazolo[1,5-a]pyrazine-3-carboxamide]
23 | 1980 | 2930 | 5000 | COc1ccc(-c2[nH]c3ccc(-c4ccc5c(c4)NCCC5)cc3c2C(C)C)cc1OC [Example 161, 7-(2-(3,4-dimethoxyphenyl)-3-isopropyl-1H-indol-5-yl)-1,2,3,4-tetrahydroquinoline]
24 | 11 | 119 | 1480 | Cc1cc(-c2[nH]c3ccc(-c4ccnc(N5CCN(C(C)C)CC5)c4)cc3c2C(C)C)ccn1 [Example 299, 3-isopropyl-5-(2-(4-isopropylpiperazin-1-yl)pyridin-4-yl)-2-(2-methylpyridin-4-yl)-1H-indole]
25 | 6.3 | 51 | 1920 | Cc1cc(-c2[nH]c3ccc(-c4nnc(C5CCCN(C(=O)CN(C)C)C5)[nH]4)cc3c2C(C)C)ccn1 (stereo not drawn) [Example 176, 2-(dimethylamino)-1-(3-(5-(3-isopropyl-2-(2-methylpyridin-4-yl)-1H-indol-5-yl)-4H-1,2,4-triazol-3-yl)piperidin-1-yl)ethan-1-one]
26 | 2.7 | 25 | 437 | Cc1cc(-c2[nH]c3ccc(-c4nnc(C5CCCN(C(C)C)C5)o4)cc3c2C(C)C)ccn1 (stereo not drawn) [Example 298, 2-(3-isopropyl-2-(2-methylpyridin-4-yl)-1H-indol-5-yl)-5-(1-isopropylpiperidin-3-yl)-1,3,4-oxadiazole]
27 | 222 | 371 | > 50000 | COc1ccc(-c2[nH]c3ccc(-c4nnc(CN5CCNC(=O)C5)o4)cc3c2C(C)C)cc1OC [Example 120, 4-((5-(2-(3,4-dimethoxyphenyl)-3-isopropyl-1H-indol-5-yl)-1,3,4-oxadiazol-2-yl)methyl)piperazin-2-one]
28 | 1.5 | 32 | 961 | CC(C)c1c(-c2ccnc3[nH]ncc23)[nH]c2ccc(-c3cc4c(s3)CNCC4)cc12 [Example 229, 2-(3-isopropyl-2-(1H-pyrazolo[3,4-b]pyridin-4-yl)-1H-indol-5-yl)-4,5,6,7-tetrahydrothieno[2,3-c]pyridine]
